Measurements taken from patent US7776847B2, “Benzisothiazoles useful for treating or preventing HCV infection” (priority 2005, dated 2010).
pIC50: −log10 of the molar value.

Test system: HCV replicon
Assay: HCV replicon luciferase reporter assay
Assay type: cell-based
Conditions: Hepatitis C virus, Table 5; read-out: IC50
Method in brief: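 Replicon-bearing dividing cells seeded at 5,000–7,500 cells/well, grown 24 h at 37° C/5% CO2, then exposed to test compound at various concentrations for a further 24–48 h. Replication/translation read by luciferase reporter; IC50 taken as compound amount giving 50% reduction in luciferase activity.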

Row | Structure (SMILES) | pIC50
1 | Cn1c(C(=O)NCCNc2nsc3ccccc23)cc2ccccc21 [Compound 412, N-(2-(benzo[d]isothiazol-3-ylamino)ethyl)-1-methyl-1H-indole-2-carboxamide] | > 5.30
2 | O=C(NCCNc1nsc2ccccc12)c1cc(-c2ccccc2)n[nH]1 [Compound 413, N-(2-(benzo[d]isothiazol-3-ylamino)ethyl)-3-phenyl-1H-pyrazole-5-carboxamide] | < 5.30
3 | O=Cc1cccc(C(=O)NCCNc2nsc3ccccc23)c1 [Compound 414, N-(2-(benzo[d]isothiazol-3-ylamino)ethyl)-3-formylbenzamide] | < 5.30
4 | O=Cc1ccc(C(=O)NCCNc2nsc3ccccc23)cc1 [Compound 415, N-(2-(benzo[d]isothiazol-3-ylamino)ethyl)-4-formylbenzamide] | < 5.30
5 | O=C(NCCNc1nsc2ccccc12)c1cccc(CO)c1 [Compound 416, N-(2-(benzo[d]isothiazol-3-ylamino)ethyl)-3-(hydroxymethyl)benzamide] | < 5.30
6 | c1ccc2c(NCCNc3nsc4ccccc34)nsc2c1 [Compound 417, N^1,N^2-di(benzo[d]isothiazol-3-yl)ethane-1,2-diamine] | < 5.30
7 | CCCNC(=O)c1ccc(C(=O)NCCNc2nsc3ccccc23)cc1 [Compound 418, N^1-(2-(benzo[d]isothiazol-3-ylamino)ethyl)-N^4-propylterephthalamide] | < 5.30
8 | O=C(NCCCNc1nsc2ccccc12)c1cccc(Br)n1 [Compound 419, N-(3-(benzo[d]isothiazol-3-ylamino)propyl)-6-bromopicolinamide] | > 5.30
9 | O=C(NCCCNc1nsc2ccccc12)c1cccc(F)n1 [Compound 420, N-(3-(benzo[d]isothiazol-3-ylamino)propyl)-6-fluoropicolinamide] | < 5.30
10 | CCCCc1ccc(C(=O)NCCNc2nsc3ccc(Cl)cc23)cc1 [Compound 421, 4-butyl-N-(2-(5-chlorobenzo[d]isothiazol-3-ylamino)ethyl)benzamide] | > 5.30
11 | CCCCNC(=O)c1ccc(C(=O)NCCNc2nsc3ccccc23)cc1 [Compound 422, N^1-(2-(benzo[d]isothiazol-3-ylamino)ethyl)-N^4-butylterephthalamide] | > 5.30
12 | CCCCCOc1ccc(C(=O)NCCNc2nsc3ccc(Cl)cc23)cc1 [Compound 423, N-(2-(5-chlorobenzo[d]isothiazol-3-ylamino)ethyl)-4-(pentyloxy)benzamide] | > 5.30
13 | CC(C)(C)OC(=O)N1CCCC(C(=O)NCCNc2nsc3ccc(Cl)cc23)C1 (centres unmarked) [Compound 424, tert-butyl 3-(2-(5-chlorobenzo[d]isothiazol-3-ylamino)ethylcarbamoyl)piperidine-1-carboxylate] | > 5.30
14 | CC(C)(C)OC(=O)N[C@H](C(=O)NCCNc1nsc2ccc(Cl)cc12)c1ccccc1 [Compound 425, (S)-tert-butyl 2-(2-(5-chlorobenzo[d]isothiazol-3-ylamino)ethylamino)-2-oxo-1-phenylethylcarbamate] | > 5.30
15 | CC(C)NC(=O)c1ccc(C(=O)NCCNc2nsc3ccccc23)cc1 [Compound 426, N^1-(2-(benzo[d]isothiazol-3-ylamino)ethyl)-N^4-isopropylterephthalamide] | > 5.30
16 | O=C(NCCNc1nsc2ccccc12)c1ccc(C(=O)NC2CC2)cc1 [Compound 427, N^1-(2-(benzo[d]isothiazol-3-ylamino)ethyl)-N^4-cyclopropylterephthalamide] | > 5.30
17 | CCCNC(=O)c1cccc(C(=O)NCCNc2nsc3ccccc23)c1 [Compound 428, N^1-(2-(benzo[d]isothiazol-3-ylamino)ethyl)-N^3-propylisophthalamide] | > 5.30
18 | CCCCNC(=O)c1cccc(C(=O)NCCNc2nsc3ccccc23)c1 [Compound 429, N^1-(2-(benzo[d]isothiazol-3-ylamino)ethyl)-N^3-butylisophthalamide] | > 5.30
19 | CC(C)NC(=O)c1cccc(C(=O)NCCNc2nsc3ccccc23)c1 [Compound 430, N^1-(2-(benzo[d]isothiazol-3-ylamino)ethyl)-N^3-isopropylisophthalamide] | > 5.30
20 | O=C(NCCNc1nsc2ccccc12)c1cccc(C(=O)NC2CC2)c1 [Compound 431, N^1-(2-(benzo[d]isothiazol-3-ylamino)ethyl)-N^3-cyclopropylisophthalamide] | > 5.30
21 | COc1ccc2[nH]c(C(=O)NCCNc3nsc4ccc(Cl)cc34)cc2c1 [Compound 432, N-(2-(5-chlorobenzo[d]isothiazol-3-ylamino)ethyl)-5-methoxy-1H-indole-2-carboxamide] | > 5.30
22 | O=C(NCCCNc1nsc2ccccc12)c1cc2ccc([N+](=O)[O-])cc2s1 [Compound 433, N-(3-(benzo[d]isothiazol-3-ylamino)propyl)-6-nitrobenzo[b]thiophene-2-carboxamide] | > 5.30

Row | Structure (SMILES) | pIC50
23 | c1ccc2c(NCCCNc3nsc4ccccc34)nsc2c1 [Compound 434, N^1,N^3-di(benzo[d]isothiazol-3-yl)propane-1,3-diamine] | > 5.30
24 | COc1cccc2cc(C(=O)NCCCNc3nsc4ccccc34)oc12 [Compound 435, N-(3-(benzo[d]isothiazol-3-ylamino)propyl)-7-methoxybenzofuran-2-carboxamide] | > 5.30
25 | O=C(NCCCNc1nsc2ccccc12)c1cc2cc(Cl)ccc2o1 [Compound 436, N-(3-(benzo[d]isothiazol-3-ylamino)propyl)-5-chlorobenzofuran-2-carboxamide] | > 5.30
26 | COc1ccc2oc(C(=O)NCCCNc3nsc4ccccc34)cc2c1 [Compound 437, N-(3-(benzo[d]isothiazol-3-ylamino)propyl)-5-methoxybenzofuran-2-carboxamide] | > 5.30
27 | COc1ccc(-c2cccc(C(=O)NCCCNc3nsc4ccccc34)n2)c(OC)c1 [Compound 438, N-(3-(benzo[d]isothiazol-3-ylamino)propyl)-6-(2,4-dimethoxyphenyl)picolinamide] | > 5.30
28 | O=C(NCCCNc1nsc2ccccc12)c1cc2ccc([N+](=O)[O-])cc2o1 [Compound 439, N-(3-(benzo[d]isothiazol-3-ylamino)propyl)-6-nitrobenzofuran-2-carboxamide] | > 5.30
29 | CS(=O)(=O)c1ccc(-c2cccc(C(=O)NCCCNc3nsc4ccccc34)n2)cc1 [Compound 440, N-(3-(benzo[d]isothiazol-3-ylamino)propyl)-6-(4-(methylsulfonyl)phenyl)picolinamide] | > 5.30
30 | CC1=NN(c2ccc(C(=O)NCCNc3nsc4ccccc34)cc2)C(=O)C1 [Compound 441, N-(2-(benzo[d]isothiazol-3-ylamino)ethyl)-4-(3-methyl-5-oxo-4,5-dihydropyrazol-1-yl)benzamide] | < 5.30
31 | O=C(NCCCNc1nsc2ccccc12)c1ccc(Br)nc1 [Compound 443, N-(3-(benzo[d]isothiazol-3-ylamino)propyl)-6-bromonicotinamide] | > 5.30
32 | CN(C)CCCNc1cccc(C(=O)NCCCNc2nsc3ccccc23)n1 [Compound 447, N-(3-(benzo[d]isothiazol-3-ylamino)propyl)-6-(3-(dimethylamino)propylamino)picolinamide] | > 5.30
33 | CCCCNc1cccc(C(=O)NCCCNc2nsc3ccccc23)n1 [Compound 448, N-(3-(benzo[d]isothiazol-3-ylamino)propyl)-6-(butylamino)picolinamide] | < 5.30
34 | O=C(NCCCNc1nsc2ccccc12)c1ccc2[nH]cnc2c1 [Compound 449, N-(3-(benzo[d]isothiazol-3-ylamino)propyl)-1H-benzo[d]imidazole-5-carboxamide] | < 5.30
35 | O=C(NCCCNc1nsc2ccccc12)c1ccc2[nH]ccc2c1 [Compound 450, N-(3-(benzo[d]isothiazol-3-ylamino)propyl)-1H-indole-5-carboxamide] | > 5.30
36 | O=C(NCCCNc1nsc2ccccc12)c1ccc(O)nc1 [Compound 451, N-(3-(benzo[d]isothiazol-3-ylamino)propyl)-6-hydroxynicotinamide] | < 5.30
37 | O=C(NCCCNc1nsc2ccccc12)c1cnc(O)c(Cl)c1 [Compound 452, N-(3-(benzo[d]isothiazol-3-ylamino)propyl)-5-chloro-6-hydroxynicotinamide] | < 5.30
38 | CCCCC(=O)Nc1ccc2oc(C(=O)NCCCNc3nsc4ccccc34)cc2c1 [Compound 453, N-(3-(benzo[d]isothiazol-3-ylamino)propyl)-5-pentanamidobenzofuran-2-carboxamide] | > 5.30
39 | CCCC(=O)Nc1ccc2oc(C(=O)NCCCNc3nsc4ccccc34)cc2c1 [Compound 454, N-(3-(benzo[d]isothiazol-3-ylamino)propyl)-5-butyramidobenzofuran-2-carboxamide] | > 5.30
40 | CCCNC(=O)Nc1ccc2oc(C(=O)NCCCNc3nsc4ccccc34)cc2c1 [Compound 455, N-(3-(benzo[d]isothiazol-3-ylamino)propyl)-5-(3-propylureido)benzofuran-2-carboxamide] | > 5.30
41 | CCCCC(=O)Nc1ccc2sc(C(=O)NCCCNc3nsc4ccccc34)cc2c1 [Compound 456, N-(3-(benzo[d]isothiazol-3-ylamino)propyl)-5-pentanamidobenzo[b]thiophene-2-carboxamide] | > 5.30
42 | CCCC(=O)Nc1ccc2sc(C(=O)NCCCNc3nsc4ccccc34)cc2c1 [Compound 457, N-(3-(benzo[d]isothiazol-3-ylamino)propyl)-5-butyramidobenzo[b]thiophene-2-carboxamide] | > 5.30
43 | CCCNC(=O)Nc1ccc2sc(C(=O)NCCCNc3nsc4ccccc34)cc2c1 [Compound 458, N-(3-(benzo[d]isothiazol-3-ylamino)propyl)-5-(3-propylureido)benzo[b]thiophene-2-carboxamide] | < 5.30
44 | Nc1ccc2sc(C(=O)NCCCNc3nsc4ccccc34)cc2c1 [Compound 459, 5-amino-N-(3-(benzo[d]isothiazol-3-ylamino)propyl)benzo[b]thiophene-2-carboxamide] | > 5.30
